biological target: hOGG1 (Homo sapiens, UniProt O15527); experiment: Biochemical fluorescence assay to measure enzymatic activity of hOGG1 (OGG1/APEX IC50); set-up: Protein His-hOGG1 (12-323) was prepared; His (N); host or cells: E. coli; details: 1 nM OGG1+2 nM APEX+6 nM dsDNA (8-oxo-dG substrate); pH 7.5; RT 40 min; read-out: OGG1/APEX IC50
Summary of the method: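 Coupled glycosylase/AP-endonuclease read-out: 8-oxo-dG-containing dsDNA (6 nM) cleaved by 1 nM His-hOGG1 (12-323) plus 2 nM APEX1 over 40 min at room temperature, after 20 min enzyme–compound preincubation; buffer 20 mM Tris pH 7.5, 100 mM KCl, 0.1% BSA, 0.01% Tween. IC50 comes from sigmoidal 3-parameter fitting of % inhibition derived from TAMRA signal.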

Chain of hOGG1 (O15527 12-323): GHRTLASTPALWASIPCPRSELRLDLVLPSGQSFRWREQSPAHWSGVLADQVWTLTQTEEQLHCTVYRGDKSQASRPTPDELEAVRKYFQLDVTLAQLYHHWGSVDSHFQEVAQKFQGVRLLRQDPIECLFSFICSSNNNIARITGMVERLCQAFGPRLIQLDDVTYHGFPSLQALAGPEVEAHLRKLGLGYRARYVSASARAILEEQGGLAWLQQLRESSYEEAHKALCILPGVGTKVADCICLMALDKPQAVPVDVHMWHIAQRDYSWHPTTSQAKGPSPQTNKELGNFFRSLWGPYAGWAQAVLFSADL

Question: Which IC50 does the source give for `COc1cc(NC(=O)[C@H]2CC[C@@H](N3Cc4c(Br)cc(NC(=O)Cc5c[nH]cn5)cc4C3=O)CC2)ccc1C` [Example 201, (1s,4s)-4-(6-(2-(1H-Imidazol-4-yl)acetamido)-4-bromo-1-oxoisoindolin-2-yl)-N-(3-methoxy-4-methylphenyl)cyclohexanecarboxamide] here?
Answer: The IC50 was 100 to 1000 nM.

Question: `COc1ncc(NC(=O)[C@H]2CC[C@@H](N3Cc4c(C)cccc4C3=O)CC2)cc1C` [Example 244, (1s,4s)-N-(6-Methoxy-5-methylpyridin-3-yl)-4-(4-methyl-1-oxoisoindolin-2-yl)cyclohexanecarboxamide] was tested. Which IC50 did it give?
Answer: Its IC50 is 100 to 1000 nM.

Question: Which IC50 does the source give for `COc1cc(NC(=O)[C@H]2CC[C@@H](N3Cc4c(C)cc(OCCN(C)C)cc4NC3=O)CC2)ccc1C` [Example 82, (1s,4s)-4-(7-(2-(dimethylamino)ethoxy)-5-methyl-2-oxo-1,2-dihydroquinazolin-3(4H)-yl)-N-(3-methoxy-4-methylphenyl)cyclohexanecarboxamide] here?
Answer: The IC50 was < 100 nM.

Question: For `Cc1ccc(NC(=O)[C@H]2CC[C@@H](N3Cc4c(C)cccc4C3=O)CC2)cc1Br` [Example 124, (1s,4s)-N-(3-Bromo-4-methylphenyl)-4-(4-methyl-1-oxoisoindolin-2-yl)cyclohexane-1-carboxamide], which IC50 is on record?
Answer: Its IC50 is 100 to 1000 nM.

Question: For `CNC(=O)c1cc(C)c2c(c1)C(=O)N([C@H]1CC[C@@H](C(=O)Nc3ccc(C)c(OC)c3)CC1)C2` [Example 212, 2-((1s,4s)-4-(3-Methoxy-4-methylphenylcarbamoyl)cyclohexyl)-N,7-dimethyl-3-oxoisoindoline-5-carboxamide], which IC50 is on record?
Answer: Its IC50 is 100 to 1000 nM.

Question: How did the IC50 turn out when `COc1cc(NC(=O)[C@H]2CC[C@@H](N3Cc4cc(Br)ccc4C3=O)CC2)ccc1C` [Example 170, (1s,4s)-4-(5-Bromo-1-oxoisoindolin-2-yl)-N-(3-methoxy-4-methylphenyl)cyclohexanecarboxamide] was run?
Answer: Its IC50 is > 10000 nM.

Question: For `Cc1cc(NCCN(C)C)cc2c1CN([C@H]1CC[C@@H](C(=O)Nc3nc4ccccc4s3)CC1)C2=O` [Example 129, (1s,4s)-N-(Benzo[d]thiazol-2-yl)-4-(6-((2-(dimethylamino)ethyl)amino)-4-methyl-1-oxoisoindolin-2-yl)cyclohexane-1-carboxamide], which IC50 is on record?
Answer: The IC50 was 100 to 1000 nM.

Question: `COc1cc(NC(=O)[C@H]2CC[C@@H](N3Cc4c(ccc(CN)c4C)NC3=O)CC2)ccc1C` [Example 57, (1s,4s)-4-(6-(Aminomethyl)-5-methyl-2-oxo-1,2-dihydroquinazolin-3(4H)-yl)-N-(3-methoxy-4-methylphenyl)cyclohexanecarboxamide] was tested. Which IC50 did it give?
Answer: The IC50 was 1000 to 10000 nM.

Question: With `COCc1ccc2c(c1C)CN([C@H]1CC[C@@H](C(=O)Nc3ccc(C)c(OC)c3)CC1)C(=O)N2` [Example 48, (1s,4s)-N-(3-Methoxy-4-methylphenyl)-4-(6-(methoxymethyl)-5-methyl-2-oxo-1,2-dihydroquinazolin-3(4H)-yl)cyclohexanecarboxamide] as the compound, how does the IC50 read?
Answer: Its IC50 is 1000 to 10000 nM.

Question: How did the IC50 turn out when `CCc1ccc(NC(=O)[C@H]2CC[C@@H](N3Cc4c(C)cccc4NC3=O)CC2)cc1C` [Example 93, (1s,4s)-N-(4-ethyl-3-methylphenyl)-4-(5-methyl-2-oxo-1,2-dihydroquinazolin-3(4H)-yl)cyclohexanecarboxamide] was run?
Answer: Its IC50 is 100 to 1000 nM.

Question: For `COc1cc(NC(=O)[C@H]2CC[C@@H](N3Cc4c(Br)cc(NC5COC5)cc4C3=O)CC2)ccc1C` [Example 174, (1s,4s)-4-(4-Bromo-6-(oxetan-3-ylamino)-1-oxoisoindolin-2-yl)-N-(3-methoxy-4-methylphenyl)cyclohexanecarboxamide], which IC50 is on record?
Answer: Its IC50 is 100 to 1000 nM.

Question: For `COc1cc(NC(=O)[C@H]2CC[C@@H](N3Cc4c(C)cc(Br)cc4NC3=O)CC2)ccc1C` [Example 74, (1s,4s)-4-(7-bromo-5-methyl-2-oxo-1,2-dihydroquinazolin-3(4H)-yl)-N-(3-methoxy-4-methylphenyl)cyclohexanecarboxamide], which IC50 is on record?
Answer: The IC50 was 100 to 1000 nM.

Question: With `Cc1ccc(NC(=O)[C@H]2CC[C@@H](N3Cc4c(C)cccc4C3=O)CC2)cc1O` [Example 222, (1s,4s)-N-(3-Hydroxy-4-methylphenyl)-4-(4-methyl-1-oxoisoindolin-2-yl)cyclohexanecarboxamide] as the compound, how does the IC50 read?
Answer: Its IC50 is 1000 to 10000 nM.

Question: `COc1ccc(NC(=O)[C@H]2CC[C@@H](N3Cc4c(C)cccc4C3=O)CC2)cc1C(F)(F)F` [Example 231, (1s,4s)-N-(4-Methoxy-3-(trifluoromethyl)phenyl)-4-(4-methyl-1-oxoisoindolin-2-yl)cyclohexanecarboxamide] was tested. Which IC50 did it give?
Answer: Its IC50 is 100 to 1000 nM.

Question: How did the IC50 turn out when `COc1cc(NC(=O)[C@H]2CC[C@@H](N3Cc4c(Br)cc(NC(=O)CN5CCOCC5)cc4C3=O)CC2)ccc1C` [Example 199, (1s,4s)-4-(4-Bromo-6-(2-morpholinoacetamido)-1-oxoisoindolin-2-yl)-N-(3-methoxy-4-methylphenyl)cyclohexanecarboxamide] was run?
Answer: Its IC50 is 100 to 1000 nM.

Question: With `COc1ccc(NC(=O)[C@H]2CC[C@@H](N3Cc4c(C)cc(NCCN(C)C)cc4NC3=O)CC2)cc1Cl` [Example 100, (1s,4s)-N-(3-chloro-4-methoxyphenyl)-4-(7-(2-(dimethylamino)ethylamino)-5-methyl-2-oxo-1,2-dihydroquinazolin-3(4H)-yl)cyclohexanecarboxamide] as the compound, how does the IC50 read?
Answer: Its IC50 is < 100 nM.

Question: How did the IC50 turn out when `COc1cc(NC(=O)[C@H]2CC[C@@H](n3[nH]c4c(C)cccc4c3=O)CC2)ccc1C` [Example 118, (1s,4s)-N-(3-Methoxy-4-methylphenyl)-4-(7-methyl-3-oxo-1,3-dihydro-2H-indazol-2-yl)cyclohexane-1-carboxamide] was run?
Answer: Its IC50 is < 100 nM.

Question: For `COc1cc(NC(=O)[C@H]2CC[C@@H](N3Cc4c(cccc4C(C)C)C3=O)CC2)ccc1C` [Example 158, (1s,4s)-4-(4-Isopropyl-1-oxoisoindolin-2-yl)-N-(3-methoxy-4-methylphenyl)cyclohexanecarboxamide], which IC50 is on record?
Answer: Its IC50 is > 10000 nM.

Question: How did the IC50 turn out when `COc1cc(NC(=O)[C@H]2CC[C@@H](N3Cc4c(ccc(N5CCC5)c4C)NC3=O)CC2)ccc1C` [Example 42, (1s,4s)-4-(6-(Azetidin-1-yl)-5-methyl-2-oxo-1,2-dihydroquinazolin-3(4H)-yl)-N-(3-methoxy-4-methylphenyl)cyclohexanecarboxamide] was run?
Answer: The IC50 was 100 to 1000 nM.

Question: How did the IC50 turn out when `Cc1cc(NC(=O)[C@H]2CC[C@@H](N3Cc4c(C)cccc4C3=O)CC2)ccc1O` [Example 220, (1s,4s)-N-(4-Hydroxy-3-methylphenyl)-4-(4-methyl-1-oxoisoindolin-2-yl)cyclohexanecarboxamide] was run?
Answer: The IC50 was 100 to 1000 nM.

Question: For `COc1ccc(NC(=O)[C@H]2CC[C@@H](N3Cc4c(C)cccc4NC3=O)CC2)cc1F` [Example 89, (1s,4s)-N-(3-fluoro-4-methoxyphenyl)-4-(5-methyl-2-oxo-1,2-dihydroquinazolin-3(4H)-yl)cyclohexanecarboxamide], which IC50 is on record?
Answer: Its IC50 is 100 to 1000 nM.

Question: With `CCc1cccc2c1CN([C@H]1CC[C@@H](C(=O)Nc3ccc(C)c(OC)c3)CC1)C2=O` [Example 156, (1s,4s)-4-(4-Ethyl-1-oxoisoindolin-2-yl)-N-(3-methoxy-4-methylphenyl)cyclohexanecarboxamide] as the compound, how does the IC50 read?
Answer: The IC50 was 1000 to 10000 nM.

Question: For `COc1cc(NC(=O)[C@H]2CC[C@@H](N3Cc4c(F)cccc4NC3=O)CC2)ccc1C` [Example 75, (1s,4s)-4-(5-fluoro-2-oxo-1,2-dihydroquinazolin-3(4H)-yl)-N-(3-methoxy-4-methylphenyl)cyclohexanecarboxamide], which IC50 is on record?
Answer: Its IC50 is 100 to 1000 nM.

Question: How did the IC50 turn out when `COc1cc(NC(=O)C(C)N2CC(N3Cc4c(Br)cccc4C3=O)C2)ccc1C` (stereo not shown) [Example 188, 2-(3-(4-Bromo-1-oxoisoindolin-2-yl)azetidin-1-yl)-N-(3-methoxy-4-methylphenyl)propanamide] was run?
Answer: The IC50 was > 10000 nM.

Question: `COc1cc(NC(=O)[C@H]2CC[C@@H](N3Cc4c(CN)cccc4C3=O)CC2)ccc1C` [Example 134, (1s,4s)-4-(4-(aminomethyl)-1-oxoisoindolin-2-yl)-N-(3-methoxy-4-methylphenyl)cyclohexane-1-carboxamide] was tested. Which IC50 did it give?
Answer: The IC50 was > 10000 nM.

Question: For `Cc1cc(NCCN(C)C)cc2c1CN([C@H]1CC[C@@H](C(=O)Nc3ccn(CCO)n3)CC1)C2=O` [Example 130, (1s,4s)-4-(6-((2-(Dimethylamino)ethyl)amino)-4-methyl-1-oxoisoindolin-2-yl)-N-(1-(2-hydroxyethyl)-1H-pyrazol-3-yl)cyclohexane-1-carboxamide], which IC50 is on record?
Answer: The IC50 was 1000 to 10000 nM.

Question: `CNCCNc1cc(Br)c2c(c1)C(=O)N([C@H]1CC[C@@H](C(=O)Nc3ccc(C)c(OC)c3)CC1)C2` [Example 175, (1s,4s)-4-(4-Bromo-6-(2-(methylamino)ethylamino)-1-oxoisoindolin-2-yl)-N-(3-methoxy-4-methylphenyl)cyclohexanecarboxamide] was tested. Which IC50 did it give?
Answer: Its IC50 is < 100 nM.

Question: For `COc1cc(NC(=O)[C@H]2CC[C@@H](N3Cc4c(C)cc(NCCN(C)C)cc4C3=O)CC2)ccc1C` [Example 208, (1s,4s)-4-(6-(2-(Dimethylamino)ethylamino)-4-methyl-1-oxoisoindolin-2-yl)-N-(3-methoxy-4-methylphenyl)cyclohexanecarboxamide], which IC50 is on record?
Answer: Its IC50 is < 100 nM.

Question: How did the IC50 turn out when `CNC(=O)c1cc(C)c2c(c1)NC(=O)N([C@H]1CC[C@@H](C(=O)Nc3ccc(C)c(OC)c3)CC1)C2` [Example 80, 3-((1s,4s)-4-(3-methoxy-4-methylphenylcarbamoyl)cyclohexyl)-N,5-dimethyl-2-oxo-1,2,3,4-tetrahydroquinazoline-7-carboxamide] was run?
Answer: Its IC50 is < 100 nM.

Question: Which IC50 does the source give for `COc1cc(NC(=O)[C@H]2CC[C@@H](N3Cc4c(Br)cc(NCC5CNC5)cc4C3=O)CC2)ccc1C` [Example 177, (1s,4s)-4-(6-(Azetidin-3-ylmethylamino)-4-bromo-1-oxoisoindolin-2-yl)-N-(3-methoxy-4-methylphenyl)cyclohexanecarboxamide] here?
Answer: Its IC50 is < 100 nM.

Question: For `COc1ccc(NC(=O)[C@H]2CC[C@@H](N3Cc4c(C)cccc4NC3=O)CC2)cc1C#N` [Example 86, (1s,4s)-N-(3-cyano-4-methoxyphenyl)-4-(5-methyl-2-oxo-1,2-dihydroquinazolin-3(4H)-yl)cyclohexanecarboxamide], which IC50 is on record?
Answer: The IC50 was < 100 nM.

Source: patent publication US20260317356A1, “SMALL MOLECULE MODULATORS OF OGG1” (AZKARRA THERAPEUTICS, INC., priority 2023, published 2026)
